Measurements: patent US5321045A, “Method and composition for the treatment of imflammatory conditions using thiosulphinic acid derivatives” (Boehringer Mannheim GmbH, priority 1987, dated 1994)

Key:
[1] = test system: thromboxane biosynthesis of thrombin-stimulated platelet-rich plasma; assay: Inhibition of the thromboxane biosynthesis of thrombin-stimulated platelet-rich plasma; type: cell-based, human; conditions: 0.001 mg/ml to 1.0 mg/ml, 15 min
Protocol: The enzyme-inhibiting action of the compounds were determined in vitro; use of the mixture of compounds 1) and 2).
From a human donor was obtained platelet-rich plasma by the usual method and adjusted to a platelet count of […]. This plasma was incubated either with a solvent (1% dimethyl sulphoxide (DMSO) -physiological common salt solution) or with various concentrations of the compounds (s. Table II).
5 Minutes later, the platelets were stimulated with thrombin (1 or 10 International Units=I.U.) at 37° C. After 15 minutes, the reaction was stopped with ice-cold methanol (volume ratio 1:1), thereafter separated by 10 minutes centrifuging at 3000 U/min. (4° C.).

[2] = test system: allergen-induced asthma bronchiale; assay: Protective action in allergen-induced asthma bronchiale of guinea pigs (ovalbumin inhalation); type: in vivo; conditions: FIGS. 4-6; dosage as in 1a); ovalbumin one percent, twice
Protocol: 1. Investigation of the asthma-protective action of compounds in vivo. There was used a mixture of compound 1) (identical with formula III on p.13 of the German text) and compound 2) (identical with formula IV on p.13 of the German text). The ratio of 1): 2) amounted to about 1:2.
For the investigation of the asthma-protective action in vivo, corresponding experiments were carried out with guinea pigs (Dorsch W. et al., Pflugers Arch. 391, page 263 (1981).
9 guinea pigs were--was described under 1a)--corresponding to a randomised crossover protocol, either fed with the active component in olive oil or with the carrier olive oil alone. The dosage of the administered compound amounted to 20 mg./kg. body weight. 30 Minutes later, the animals inhaled twice, at an interval of 10 minutes, in each case for 20 seconds, a one percent ovalbumin solution, the substance to which they had been sensitised 3 weeks previously. The extent of the resulting bronchial obstruction was also determined whole body plethysmographically in 2 minute intervals for the period of twice 10 minutes (for the method see: Dorsch W, Walter O., Rosmanith J.: Continuous Recording of Intrapulmonary "Compressed Air" as a Sensitive Noninvasive Method of Measuring Branchial Obstruction in Guinea Pigs, Pflugers Arch. 391: 236-241 (1981)). […]

SMILES | maximum dosage-dependent suppression of the thromboxane B2 biosynthesis [1] | Asthmatic reaction to the inhalation of an antigen [2]
[O-][S+](Sc1ccccc1)c1ccccc1 (stereo not shown) [compound 4, phenylthiosulphinic acid phenyl ester] | 76% | clearly weaken the asthmatic reaction
CS[S+](C)[O-] (stereo not shown) [compound 3, methylthiosulphinic acid methyl ester] | 61% | clearly weaken the asthmatic reaction
